{"source": "patent US20240366813A1", "about": "“PEPTIDE-UREA DERIVATIVE, PHARMACEUTICAL COMPOSITION CONTAINING SAME AND APPLICATION THEREOF” (Bivision Pharmaceuticals, Inc., priority 0001, published 2024)", "key": {"[1]": {"biological_target": "PSMA protein (Homo sapiens (Human), UniProt Q04609)", "sequence (Q04609 whole entry)": "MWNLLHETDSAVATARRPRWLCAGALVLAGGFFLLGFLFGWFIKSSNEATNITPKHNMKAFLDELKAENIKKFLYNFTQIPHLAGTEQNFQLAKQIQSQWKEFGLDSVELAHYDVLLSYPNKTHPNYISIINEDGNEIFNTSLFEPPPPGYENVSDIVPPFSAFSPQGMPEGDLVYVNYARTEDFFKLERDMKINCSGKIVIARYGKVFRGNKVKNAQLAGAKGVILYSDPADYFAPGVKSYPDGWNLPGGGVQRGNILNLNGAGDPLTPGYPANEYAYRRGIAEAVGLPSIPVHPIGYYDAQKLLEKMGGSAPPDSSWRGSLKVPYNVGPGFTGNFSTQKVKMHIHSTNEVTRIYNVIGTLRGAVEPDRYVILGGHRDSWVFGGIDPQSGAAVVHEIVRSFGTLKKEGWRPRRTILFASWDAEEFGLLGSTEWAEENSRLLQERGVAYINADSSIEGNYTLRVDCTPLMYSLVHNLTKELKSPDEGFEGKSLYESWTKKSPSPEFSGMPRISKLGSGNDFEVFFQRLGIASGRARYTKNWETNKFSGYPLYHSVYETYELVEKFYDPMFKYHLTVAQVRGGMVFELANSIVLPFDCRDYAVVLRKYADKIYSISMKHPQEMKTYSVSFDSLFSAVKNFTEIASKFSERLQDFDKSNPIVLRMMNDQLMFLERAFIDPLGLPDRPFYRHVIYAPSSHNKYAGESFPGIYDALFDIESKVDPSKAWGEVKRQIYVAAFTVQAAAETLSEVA", "test": "In vitro binding test of compound and PSMA protein (Biacore)", "conditions": "Biacore 8K, 15° C., 1:1 binding model, KD in M; for Kd: read-out: pkD (pKD=−Log KD, binding affinity to PSMA protein) (converted)", "experimental": "A Biacore 8K (Cytiva) instrument was used to determine the binding affinity of disclosed compounds to the PSMA protein (Sinobiological). The PSMA protein was captured on SA chips. Before immobilizing the disclosed compounds (flow path 1 and 2, flow rate 10 μL/min), the PSMA protein was immobilized on flow path 2 by using flow buffer (10 μg/ml, flow rate 5 μL/min, injection time 600 s), and 1M NaCl was injected three times consecutively into 50 mM NaOH to condition the sensor surface. After each disclosed compounds injection, isopropanol in 1M NaCl and 50 mM NaOH was used for additional washing (flow path 1, 2, flow rate 10 μL/min, injection time 60 s).\nAll compounds were dissolved in 100% DMSO and diluted to 10 mM, and then diluted in test buffer (PBS, pH 7.4, 1 mM TCEP ([…]), 0.05% P20, 2% dimethyl sulfoxide) at an appropriate highest concentration. Analytes were run using the following conditions: 15° C. analysis temperature, analysis steps=all set to LMW kinetics; cycle type=single cycle (90 s contact time, 1800 s separation time, 30 ul/min flow rate, channels 1, 2); channel detection=2-1). Data were evaluated using Biacore Insight evaluation software, and data were fit to a 1:1 binding model.\nBiacore results are shown in Table 12: pKD=−Log KD, where KD is the binding affinity of the compounds to PSMA protein measured by Biacore. KD is expressed by KD (M)=Kd (1/s)/Ka (1/Ms)."}, "[2]": {"tested_on": "22rv1 xenograft tumor", "test": "Pharmacodynamic study in 22rv1 mouse xenograft tumor model (effect example 11)", "assay_type": "in vivo, mice", "conditions": "for TGITV (relative tumor inhibition rate): Day 19; for Tumor volume, Administration in groups Day 19: mean ± standard error"}, "[3]": {"tested_on": "plasma protein", "test": "Determination of plasma protein binding (PPB)", "assay_type": "in vitro ADME", "conditions": "^177Lu-labeled, 37° C., 10 min, ultrafiltration, FIG. 6", "experimental": "Three EP tubes were taken, and 0.2 mL of plasma and 50 μL of ^177Lu-labeled compound were added to each tube. The mixture was incubated in a thermostat at 37° C. for 10 min, and then taken out and added to ultrafiltration tubes, respectively. The ultrafiltration tubes were centrifuged at 13,000 rpm for 45 min. 50 μL of normal saline was then added, and the mixture was centrifuged for another 15 minutes. The radioactive counts per minute of each tube casing and filtrate were then measured. PPB was calculated, and the mean of 3 tubes was recorded. PPB=[(supernatant counts-background counts)]/(subnatant counts+supernatant counts−2*background counts)]*100."}, "[4]": {"tested_on": "PSMA-positive (22RV1) tumor", "test": "Specificity test, PET/CT in PSMA-positive (22RV1) tumor-bearing mice with and without PMPA", "assay_type": "in vivo", "conditions": "^68Ga-E3 co-injected with PMPA (2 mg/Kg), FIG. 4", "experimental": "The ^68Ga-E3 radiolabeled compound was injected into the tail vein of PSMA-positive (22RV1) tumor-bearing mice (Jiangsu Huajing Molecular Imaging and Drug Research Institute Co., Ltd.) (about 7.4 MBq/mouse, specific activity: 22423.82 KBq/μg) ([…]). After administration, PET/CT was used for 1 h dynamic scanning, medium resolution whole body CT, and 10 min static scanning at 2 h and 3 h. It can be clearly seen from FIG. 3 that the drug is rapidly distributed into the animal body after administration, and the drug is rapidly metabolized by the kidneys and excreted from the body over time.\nThe next day, the mixture of ^68Ga-E3 and PSMA standard PMPA (2 mg/Kg) was injected into the tail vein of PSMA-positive tumor-bearing mice (about 7.4 MBq/mouse, specific activity: 22423.82 KBq/μg) (50 uCi). After administration, PET/CT was used for 1 h dynamic scanning, medium resolution whole body CT, and 10 min static scanning at 2 h and 3 h. The results are depicted in detailed in FIG. 4.\nPMPA is a specific inhibitor of PSMA. When PMPA is administered together with ^68Ga-E3, ^68Ga-E3 and PMPA are rapidly distributed to various organs in the animal body. However, PMPA occupies the PSMA target on the tumor, thus preventing the binding of ^68Ga-E3 to PSMA on the tumor."}, "[5]": {"test": "Determination of Log P (n-octanol/water)", "assay_type": "physicochemical", "conditions": "room temperature, FIG. 5", "experimental": "Three EP tubes were taken, and 0.5 mL of saturated n-octanol and 480 μL of ultrapure water were added into each EP tube. 20 μL (about 1 MBq) solution of E series compounds and reference compound were then added respectively. The mixture was shaken evenly and then centrifuged at room temperature (2000 r/min, 5 min, centrifugal radius: 10 cm). 100 μL was taken from the lipid layer and aqueous layer of each tube, and the radioactive counts per minute of the two phases were measured. The Log P value was calculated and the results were averaged."}, "[6]": {"tested_on": "LNCAP cells", "test": "Cell binding test on LNCAP cells", "assay_type": "cell-based", "conditions": "^177Lu-labeled, on ice 2 hours, FIG. 1", "experimental": "LNCAP cells in the logarithmic growth phase (Obio Technology (Shanghai) Corp., Ltd.) were made into a cell suspension. The cell suspension was adjusted to a cell density of 2×10^5/ml and inoculated 1 mL into a 24-well cell culture plate. Cells were incubated in an incubator at 37° C. for 48 hours. Three hours before the test, the medium was replaced with serum-free RPMI1640 medium (NEWZERUM), the cell culture medium was aspirated, and the cells were washed once with PBS. Serum-free RPMI1640 medium was used to prepare ^177Lu-E series compounds at concentrations of 32, 16, 8, 4, 1, 0.5, 0.1, 0.02, 0.01, 0.002 uCi/mL. The original medium was discarded, and then 1 mL of the prepared solution containing ^177Lu-E series compounds was added to each well. The plate was placed on ice for 2 hours, and then the cells were washed three times with 0.5 mL of ice-cold PBS. The washing solution was aspirated, and the cells were lysed with 0.5 mL of 1M NaOH and washed twice with 0.5 mL of PBS, and the sodium hydroxide (0.5 mL) and PBS (0.5 mL×2) solutions were collected. The uptake counts were determined."}, "[7]": {"conditions": "300 μCi of ^177Lu-labeled test sample"}, "[8]": {"conditions": "600 μCi of ^177Lu-labeled test sample"}}, "data": [{"compound": "O=C(O)CC[C@H](NC(=O)NC(CCCCNC(=O)[C@H](Cc1ccc2ccccc2c1)NC(=O)C1CCC2(CC1)CN(C(=O)CN1CCN(CC(=O)O)CCN(CC(=O)O)CCN(CC(=O)O)CC1)C2)C(=O)O)C(=O)O", "note": "(stereo partly shown) [Compound E2]", "values": [{"measurement": "Kd", "setting": "[1]", "value": 0.229, "unit": "nM"}]}, {"compound": "O=C(O)CC[C@H](NC(=O)NC(CCCCNC(=O)[C@H](Cc1ccc2ccccc2c1)NC(=O)c1ccc2c(c1)CCN(C(=O)CN1CCN(CC(=O)O)CCN(CC(=O)O)CCN(CC(=O)O)CC1)C2)C(=O)O)C(=O)O", "note": "(stereo partly shown) [Compound E3]", "values": [{"measurement": "TGITV (relative tumor inhibition rate)", "setting": "[2]; [7]", "value": 71.00, "unit": "%"}, {"measurement": "Tumor volume, Administration in groups Day 19", "setting": "[2]; [7]", "value": "590.66 ± 103.97", "unit": "mm^3"}, {"measurement": "TGITV (relative tumor inhibition rate)", "setting": "[2]; [8]", "value": 80.42, "unit": "%"}, {"measurement": "Tumor volume, Administration in groups Day 19", "setting": "[2]; [8]", "value": "447.12 ± 47.84", "unit": "mm^3"}, {"measurement": "PPB binding rate", "setting": "[3]", "value": "extremely high"}, {"measurement": "pkD (pKD=−Log KD, binding affinity to PSMA protein)", "setting": "[1]", "value": 9.26}, {"measurement": "specificity against PSMA", "setting": "[4]", "value": "high specificity"}]}, {"compound": "O=C(O)CC[C@H](NC(=O)N[C@@H](CCCCNC(=O)[C@H](Cc1ccc2ccccc2c1)NC(=O)c1ccc2c(c1)CN(C(=O)CN1CCN(CC(=O)O)CCN(CC(=O)O)CCN(CC(=O)O)CC1)CC2)C(=O)O)C(=O)O", "note": "[Compound E4]", "values": [{"measurement": "Kd", "setting": "[1]", "value": 0.269, "unit": "nM"}]}, {"compound": "O=C(O)CC[C@H](NC(=O)N[C@@H](CCCCNC(=O)[C@H](Cc1ccc2ccccc2c1)NC(=O)C1C2CN(C(=O)CN3CCN(CC(=O)O)CCN(CC(=O)O)CCN(CC(=O)O)CC3)CC21)C(=O)O)C(=O)O", "note": "(stereo partly shown) [Compound E8]", "values": [{"measurement": "pkD (pKD=−Log KD, binding affinity to PSMA protein)", "setting": "[1]", "value": 9.49}]}, {"compound": "O=C(O)CC[C@H](NC(=O)NC(CCCCNC(=O)[C@H](Cc1ccc2ccccc2c1)NC(=O)C1CCC2(CC1)CCN(C(=O)CN1CCN(CC(=O)O)CCN(CC(=O)O)CCN(CC(=O)O)CC1)CC2)C(=O)O)C(=O)O", "note": "(stereo partly shown) [Compound E9]", "values": [{"measurement": "Kd", "setting": "[1]", "value": 0.282, "unit": "nM"}]}, {"compound": "O=C(O)CC[C@H](NC(=O)N[C@@H](CCCCNC(=O)[C@H](Cc1ccc2ccccc2c1)NC(=O)c1ccc2cc(NC(=O)CN3CCN(CC(=O)O)CCN(CC(=O)O)CCN(CC(=O)O)CC3)ccc2c1)C(=O)O)C(=O)O", "note": "[Compound E21]", "values": [{"measurement": "pkD (pKD=−Log KD, binding affinity to PSMA protein)", "setting": "[1]", "value": 9.82}]}, {"compound": "O=C(O)CC[C@H](NC(=O)N[C@@H](CCCCNC(=O)[C@H](Cc1ccc2ccccc2c1)NC(=O)C1CC2(C1)CN(C(=O)CN1CCN(CC(=O)O)CCN(CC(=O)O)CCN(CC(=O)O)CC1)C2)C(=O)O)C(=O)O", "note": "[Compound E22]", "values": [{"measurement": "pkD (pKD=−Log KD, binding affinity to PSMA protein)", "setting": "[1]", "value": 10.00}]}, {"compound": "O=C(O)CC[C@H](NC(=O)N[C@@H](CCCCNC(=O)[C@H](Cc1ccc2ccccc2c1)NC(=O)c1cnc2cc(NC(=O)CN3CCN(CC(=O)O)CCN(CC(=O)O)CCN(CC(=O)O)CC3)ccc2c1)C(=O)O)C(=O)O", "note": "[Compound E25]", "values": [{"measurement": "pkD (pKD=−Log KD, binding affinity to PSMA protein)", "setting": "[1]", "value": 10.15}]}, {"compound": "O=C(O)CC[C@H](NC(=O)N[C@@H](CCCCNC(=O)[C@H](Cc1ccc2ccccc2c1)NC(=O)C1CCC(NC(=O)CN2CCN(CC(=O)O)CCN(CC(=O)O)CCN(CC(=O)O)CC2)CC1)C(=O)O)C(=O)O", "note": "(stereo partly shown) [Compound E26]", "values": [{"measurement": "lipophilicity (Log P) compared with the reference compound PSMA-617", "setting": "[5]", "value": "better lipophilicity"}, {"measurement": "cell binding ability", "setting": "[6]", "value": "excellent cell binding ability"}, {"measurement": "pkD (pKD=−Log KD, binding affinity to PSMA protein)", "setting": "[1]", "value": 9.44}]}, {"compound": "O=C(O)CC[C@H](NC(=O)N[C@@H](CCCCNC(=O)[C@H](Cc1ccc2ccccc2c1)NC(=O)[C@H]1CC[C@H](CNC(=O)CN2CCN(CC(=O)O)CCN(CC(=O)O)CCN(CC(=O)O)CC2)CC1)C(=O)O)C(=O)O", "note": "[PSMA-617, reference compound]", "values": [{"measurement": "TGITV (relative tumor inhibition rate)", "setting": "[2]; [7]", "value": 15.49, "unit": "%"}, {"measurement": "Tumor volume, Administration in groups Day 19", "setting": "[2]; [7]", "value": "1,480.09 ± 446.83 mm^3"}, {"measurement": "TGITV (relative tumor inhibition rate)", "setting": "[2]; [8]", "value": 21.18, "unit": "%"}, {"measurement": "Tumor volume, Administration in groups Day 19", "setting": "[2]; [8]", "value": "1,389.81 ± 598.96 mm^3"}, {"measurement": "Kd", "setting": "[1]", "value": 0.00204, "unit": "nM"}]}]}
